From US6506799B1, “Methods of treating cardiovascular diseases, dyslipidemia, dyslipoproteinemia, and hypertension with ether compounds” (Esperion Therapeutics, Inc., priority 1999, dated 2003)

Assays:
[1] = test system: chow fed male Sprague-Dawley rats; test: Serum lipids, apolipoproteins and weight gain in chow fed male Sprague-Dawley rats after seven days of treatment; format: in vivo, rat; conditions: 100 mg/kg/day oral gavage, 7 days; normalized against vehicle control
Experimental: Illustrative compounds of the invention were administered daily at a dose of 100 mg/kg to chow fed male Sprague-Dawley rats for seven days in the morning by oral gavage in 1.5% carboxymethylcellulose/0.2% Tween-20 (dosing vehicle). Animals were weighed daily. Animals were allowed free access to rodent chow and water throughout the study. After the seventh dose, animals were sacrificed in the evening and blood serum was assayed for lipoprotein cholesterol profiles, serum triglycerides, total cholesterol VLDL, LDL, and HDL cholesterol, and the ratio of HDL cholesterol to that of VLDL plus LDL cholesterol, apolipoproteins A-I, C-II, C-III, and E by immunoelectrophoresis, and percent weight gain.
The five compounds were tested in two separate experiments. In each experiment, the experimental data were normalized against a control group of rats which received the dosing vehicle alone.

[2] = test system: female obese Zucker rats; test: Experiment A: serum lipids, glucose, non-esterified fatty acids and weight gain in obese female Zucker rats after seven days; format: in vivo, rat; conditions: 120 mg/kg
Experimental: Dosing vehicle, Compound A (86 mg/kg of body weight) or troglitazone (120 mg/kg of body weight) was administered to eight week old female obese Zucker rats daily for seven days in the morning by oral gavage in 1.5% carboxymethylcellulose/0.2% Tween-20. Troglitazone was obtained commercially. Finely crushed tablets were suspended in vehicle for dosing. Orbital blood samples were obtained following a six-hour fast prior to the initial dose and also following the seventh dose.
Blood serum was assayed for total cholesterol and triglycerides (FIG. 5), lipoprotein cholesterol profiles (FIG. 6), VLDL plus LDL cholesterol combined (also referred to as apo B containing lipoprotein cholesterol or non-HDL cholesterol), HDL cholesterol, and the ratio of HDL cholesterol to that of VLDL plus LDL cholesterol (FIG. 7), serum glucose, and non-esterified fatty acids (FIG. 8), and percent weight gain (FIG. 9). […] In particular, Compound A caused a marked elevation in HDL cholesterol after one week of treatment. Using the serum total cholesterol values (FIG. 5A) and the lipoprotein cholesterol distribution (FIG. 6), the amount of cholesterol associated with non-HDL (i.e., VLDL plus LDL) and HDL were determined (FIG. 7). […] In contrast, troglitazone reduced non-HDL and HDL cholesterol by 67% and 4%, respectively.

[3] = test system: chow fed obese female Zucker rats; test: Experiments B, C, D, E: serum lipids, glucose, insulin, body and liver weight in obese female Zucker rats, 14 days; format: in vivo, rat; conditions: for Body Weight Gain (% of Pretreatment) / HDL-Cholesterol (% of Pretreatment) / Non HDL-Cholesterol (% of Pretreatment) / Triglycerides (% of Pretreatment): 14 days
Experimental: In a number of different experiments, illustrative compounds of the invention and troglitazone were administered daily at various doses to 10-week old chow fed obese female Zucker rats for 14 days in the morning by oral gavage in 1.5% carboxymethylcellulose/0.2% Tween-20 (dosing vehicle). Animals were weighed daily. Animals were allowed free access to rodent chow and water throughout the study. Blood glucose was determined after a 6-hour fast in the afternoon without anesthesia from a tail vein. Serum was also prepared from a blood sample subsequently obtained from the orbital venous plexus (with O2/CO2 anesthesia) prior to and after one week treatment and used lipid and insulin determinations. At two weeks, blood glucose was again determined after a 6-hour fast without anesthesia from a tail vein. Soon thereafter, animals were sacrificed by CO2 inhalation in the evening and cardiac blood serum was collected and assessed for various lipids and insulin. Body weight was determined daily prior to dosing and at the time of euthanasia.

[4] = test system: primary rat hepatocytes; test: Synthesis of non-saponified and saponified lipids (14C-acetate incorporation) in hepatocytes; format: cell-based; conditions: 100 μM; 14C-acetate 2 hr; vs no compound control
Experimental: A male Sprague-Dawley rat was anesthetized by administration of sodium pentobarbitol by intraparitoneal injection at 50 mg/kg. In situ perfusion of the liver was performed as follows. […] To digest the liver, DSC solution (6.7 mM KCl, 143 mM NaCl, 9.2 mM Na HEPES, 5 mM CaCl2-2H2O, 1.7 mM Fructose, 0.029 mM Phenol red, 0.2% BSA, 100 U/ml collagenase Type I, 93 U/ml Hyaluronidase, 160 BAEE/ml trypsin inhibitor, pH 7.5) was perfused through the liver at a flow rate of 30 ml/min for 6 minutes at a temperature of 37° C. After digestion, cells were dispersed in a solution of DMEM-(DMEM containing 2 mM GlutMax-1, 0.2% BSA, 5% FBS, 12 nM insulin, 1.2 μM hydrocortisone) to stop the digestion process. The crude cell suspension was filtered through three layers of stainless steel mesh with pore sizes of 250, 106, and 75 μm respectively. Filtered cells were centrifuged at 50×g for two minutes and the supernatant discarded. The resulting cell pellet was resuspended in DMEM and centrifuged again. This final cell pellet was resuspended in DMEM+HS solution (DMEM containing 2 mM GlutMax-1, 20 nM delta-aminolevulinic acid, 17.4 mM MEM non-essential amino acids, 20% FBS, 12 nM insulin, 1.2 µM hydrocortisone) and plated to form monolayer cultures at a density of 100×10^3 cells/cm^2 on collagen coated culture dishes. Four hours after initial plating, media was changed to DMEM+(DMEM containing 2 mM GlutMax-1, 20 nM delta-aminolevulinic acid, 17.4 mM MEM non-essential amino acids, 10% FBS, 12 nM insulin, 1.2 μM hydrocortisone) and remained on cells overnight.
To test the effect of illustrative compounds of the invention on synthesis rates of non-saponified and saponified lipids, the monolayer cultures were exposed to 1 μM of lovastatin or 100 μM Compound A, B, D, E or F in DMEM+ containing 1 μCi/ml ^14C-acetate. Control cells were exposed to the same media lacking lovastatin or the test compounds. All cells were exposed to 0.1% DMSO. Metabolic labeling with ^14C-acetate continued for 2 hr at 37° C. After labeling, cells were washed twice with 1 ml of PBS followed by lysing in 1 ml of deionized water. Cells were scraped from the dishes, transferred to glass tubes and sonicated. 2.5 ml of 2:1 chloroform/methanol mixture was added followed by 1.5 ml of Phosphate Buffered Saline (PBS). To correct for extraction efficiency in the upcoming extractions, 3000 dpm of ^3H-cholesterol was added to each tube. Tubes were shaken for 30 min. to extract lipids into the organic phase followed by centrifugation for 10 minutes at 1000×g to separate the organic and aqueous phases. The lower organic phase containing total lipids was removed and placed in a new tube. The organic solution was evaporated under N2. […]

SMILES: CC(C)(CCCOCCCC(C)(C)OP(=O)(O)O)OP(=O)([O-])[O-].[Na+].[Na+] [Compound D, phosphoric acid mono-(1,1-dimethyl-4-(4-methyl-4-phosphonooxy-pentyloxy)-butyl)ester sodium salt]
- HDL-Cholesterol (% change) [1]: +13.3 % change
- LDL-Cholesterol (% change) [1]: −17.0 % change
- Triglyceride (% change) [1]: +28.0 % change

SMILES: Cc1c(C)c2c(c(C)c1O)CCC(C)(COc1ccc(CC3SC(=O)NC3=O)cc1)O2 (stereo not drawn) [troglitazone, reference compound]
- reduction of HDL cholesterol ([2]; one week): 4%
- reduction of non-HDL cholesterol ([2]; one week): 67%
- reduction of non-esterified fatty acids ([2]; one week): 65%
- increase in weight gain ([2]; seven days, vehicle 6.6%): +11.6%
- Body Weight Gain (% of Pretreatment) ([3]; Experiment B, 120 mg/kg/day): +21.7 % of Pretreatment
- HDL-Cholesterol (% of Pretreatment) ([3]; Experiment B, 120 mg/kg/day): +44.2 % of Pretreatment
- Non HDL-Cholesterol (% of Pretreatment) ([3]; Experiment B, 120 mg/kg/day): −44.0 % of Pretreatment
- Triglycerides (% of Pretreatment) ([3]; Experiment B, 120 mg/kg/day): −76.6 % of Pretreatment
- Body Weight Gain (% of Pretreatment) ([3]; Experiment C, 12 mg/kg/day): +20.2 % of Pretreatment
- HDL-Cholesterol (% of Pretreatment) ([3]; Experiment C, 12 mg/kg/day): +1.9 % of Pretreatment
- Non HDL-Cholesterol (% of Pretreatment) ([3]; Experiment C, 12 mg/kg/day): −10.6 % of Pretreatment
- Triglycerides (% of Pretreatment) ([3]; Experiment C, 12 mg/kg/day): +10.7 % of Pretreatment
- Body Weight Gain (% of Pretreatment) ([3]; Experiment C, 40 mg/kg/day): +21.2 % of Pretreatment
- HDL-Cholesterol (% of Pretreatment) ([3]; Experiment C, 40 mg/kg/day): +36.1 % of Pretreatment
- Non HDL-Cholesterol (% of Pretreatment) ([3]; Experiment C, 40 mg/kg/day): −50.5 % of Pretreatment
- Triglycerides (% of Pretreatment) ([3]; Experiment C, 40 mg/kg/day): −59.6 % of Pretreatment
- HDL increase ([3]; Experiment C, 120 mg/kg dose): 122%
- Body Weight Gain (% of Pretreatment) ([3]; Experiment C, 120 mg/kg/day): +25.5 % of Pretreatment
- HDL-Cholesterol (% of Pretreatment) ([3]; Experiment C, 120 mg/kg/day): +122.4 % of Pretreatment
- Non HDL-Cholesterol (% of Pretreatment) ([3]; Experiment C, 120 mg/kg/day): −67.5 % of Pretreatment
- Triglycerides (% of Pretreatment) ([3]; Experiment C, 120 mg/kg/day): −79.2 % of Pretreatment
- percent liver to body weight ([3]; Experiment C, all doses, after two weeks, FIG. 16): reduced at all doses
- Body Weight Gain (% of Pretreatment) ([3]; Experiment D, 120 mg/kg/day): +13.8 % of Pretreatment
- HDL-Cholesterol (% of Pretreatment) ([3]; Experiment D, 120 mg/kg/day): +41.3 % of Pretreatment
- Non HDL-Cholesterol (% of Pretreatment) ([3]; Experiment D, 120 mg/kg/day): −51.0 % of Pretreatment
- Triglycerides (% of Pretreatment) ([3]; Experiment D, 120 mg/kg/day): −65.9 % of Pretreatment
- Body Weight Gain (% of Pretreatment) ([3]; Experiment E, 120 mg/kg/day): +14.4 % of Pretreatment
- HDL-Cholesterol (% of Pretreatment) ([3]; Experiment E, 120 mg/kg/day): +47.9 % of Pretreatment
- Non HDL-Cholesterol (% of Pretreatment) ([3]; Experiment E, 120 mg/kg/day): −67.4 % of Pretreatment
- Triglycerides (% of Pretreatment) ([3]; Experiment E, 120 mg/kg/day): −69.4 % of Pretreatment

SMILES: CC(C)(CCCOCCCC(C)(C)OP(=O)(OCc1ccccc1)OCc1ccccc1)OP(=O)(OCc1ccccc1)OCc1ccccc1 [Compound E, phosphoric acid dibenzyl ester 4-(4-(bis-benzyloxy-phosphoryloxy)-4-methyl-pentyloxy)-1,1-dimethyl-butyl ester]
- HDL-Cholesterol (% change) [1]: +49.1 % change
- LDL-Cholesterol (% change) [1]: −41.0 % change
- Triglyceride (% change) [1]: −30.5 % change
- rates of saponified fatty acid synthesis [4]: reduced the rates of saponified fatty acid synthesis

SMILES: CC(C)(CCCCOCCCCC(C)(C)OP(=O)(OCc1ccccc1)OCc1ccccc1)OP(=O)(OCc1ccccc1)OCc1ccccc1 [Compound C, phosphoric acid dibenzyl ester 5-(5-(bis-benzyloxy-phosphoryloxy)-5-methyl-hexyloxy)-1,1-dimethyl-pentyl ester]
- HDL-Cholesterol (% change) [1]: +11.6 % change
- LDL-Cholesterol (% change) [1]: −4.0 % change
- Triglyceride (% change) [1]: +32.6 % change

SMILES: CC(C)(CCCCOCCCCC(C)(C)OP(=O)(O)O)OP(=O)([O-])[O-].[Na+].[Na+] [Compound B, phosphoric acid mono-(1,1-dimethyl-5-(5-methyl-5-phosphonooxy-hexyloxy)-pentyl)ester sodium salt]
- HDL-Cholesterol (% change) [1]: +40.7 % change
- LDL-Cholesterol (% change) [1]: +23.2 % change
- Triglyceride (% change) [1]: −31.1 % change
- Body Weight Gain (% of Pretreatment) ([3]; Experiment B, 100 mg/kg/day): +12.0 % of Pretreatment
- HDL-Cholesterol (% of Pretreatment) ([3]; Experiment B, 100 mg/kg/day): −23.3 % of Pretreatment
- Non HDL-Cholesterol (% of Pretreatment) ([3]; Experiment B, 100 mg/kg/day): +257.1 % of Pretreatment
- Triglycerides (% of Pretreatment) ([3]; Experiment B, 100 mg/kg/day): +24.6 % of Pretreatment

SMILES: CC(C)(O)CCCCOCCCCC(C)(C)O [Compound F, 6-(5-hydroxy-5-methyl-hexyloxy)-2-methyl-hexan-2-ol]
- rates of saponified fatty acid synthesis [4]: reduced the rates of saponified fatty acid synthesis
